Reference: patent publication US9718785B2, “1,3-Disubstituted cyclopentane derivatives” (MERCK PATENT GMBH, priority 2013, dated 2017)

Target: T1, human recombinant full-length fatty acid synthase (FASN) (Homo sapiens, UniProt P49327)
T1 construct: 40 nM human recombinant full-length fatty acid synthase (produced in-house in SF9 cells); made in house; host or cells: SF9 insect cells
Assay: Biochemical activity testing of human fatty acid synthase FASN (NADPH fluorescence intensity enzyme assay)
Settings: human recombinant FASN, enzyme assay
Source text: Biochemical Activity Testing of Human Fatty Acid Synthase FASN
Fatty acid synthase FASN is a multifunctional enzyme with seven catalytic activities thereby synthesising long chain fatty acids especially palmitoyl-CoA in the presence of co-factor NADPH starting from the substrates acetyl-CoA and malonyl-CoA. The reductive synthesis is realized by the oxidation of NADPH to NADP. Since NADPH has a high fluorescence intensity quantum yield compared to NADP with excitation at 340 nm and emission at 460 nm, the reaction can be monitored via the decrease in fluorescence intensity. The biochemical FASN activity testing was performed as 384 well two-time-point kinetic fluorescence intensity assay format in Greiner low volume medium binding 384-well black microtiter plates in a total assay volume of 8 μl and was used for high throughput screen. In each well 3 μl 40 nM human recombinant full-length fatty acid synthase (produced in-house in SF9 cells) were dispensed in the following assay buffer: 50 mM potassium phosphate buffer pH 7.0, 0.005% (w/v) BSA, 2 mM Glutathione, 0.02% Tween-20. Then 2 μl of 200 μM NADPH in assay buffer were added, followed by the addition of the test compounds in 10 dilution concentrations starting with 30 μM (final concentration) to get a final DMSO content of 1% (v/v). The mixture was incubated for at least 15 min at room temperature. After the pre-incubation the enzymatic reaction was started by the addition of 2 μl substrate solution (80 μM acetyl-CoA, 240 μM malonyl-CoA). A first fluorescence intensity measurement (time point one) was performed with an Envision multimode reader (Perkin Elmer LAS Germany GmbH) at excitation wavelength 340 nm (lamp mode) and emission wavelength 460 nm. The reaction was incubated for 30 minutes at room temperature. After this the fluorescence intensity was measured again in the Envision using the same parameters as described above (second time point measurement). The data were analysed by subtracting the first time point measurement value from the second time point measurement value (after the enzymatic reaction). The differences of the emission signals were determined. These reflect directly the conversion rate of NADPH. The full value used was the inhibitor-free reaction. A pharmacological zero value was used like GSK837149A (Sigma-Aldrich) in a final concentration of 5-10 μM. The inhibitory values (IC50) were determined using either the program Symyx Assay Explorer® or Condosseo® from GeneData.

T1 sequence (P49327 whole entry): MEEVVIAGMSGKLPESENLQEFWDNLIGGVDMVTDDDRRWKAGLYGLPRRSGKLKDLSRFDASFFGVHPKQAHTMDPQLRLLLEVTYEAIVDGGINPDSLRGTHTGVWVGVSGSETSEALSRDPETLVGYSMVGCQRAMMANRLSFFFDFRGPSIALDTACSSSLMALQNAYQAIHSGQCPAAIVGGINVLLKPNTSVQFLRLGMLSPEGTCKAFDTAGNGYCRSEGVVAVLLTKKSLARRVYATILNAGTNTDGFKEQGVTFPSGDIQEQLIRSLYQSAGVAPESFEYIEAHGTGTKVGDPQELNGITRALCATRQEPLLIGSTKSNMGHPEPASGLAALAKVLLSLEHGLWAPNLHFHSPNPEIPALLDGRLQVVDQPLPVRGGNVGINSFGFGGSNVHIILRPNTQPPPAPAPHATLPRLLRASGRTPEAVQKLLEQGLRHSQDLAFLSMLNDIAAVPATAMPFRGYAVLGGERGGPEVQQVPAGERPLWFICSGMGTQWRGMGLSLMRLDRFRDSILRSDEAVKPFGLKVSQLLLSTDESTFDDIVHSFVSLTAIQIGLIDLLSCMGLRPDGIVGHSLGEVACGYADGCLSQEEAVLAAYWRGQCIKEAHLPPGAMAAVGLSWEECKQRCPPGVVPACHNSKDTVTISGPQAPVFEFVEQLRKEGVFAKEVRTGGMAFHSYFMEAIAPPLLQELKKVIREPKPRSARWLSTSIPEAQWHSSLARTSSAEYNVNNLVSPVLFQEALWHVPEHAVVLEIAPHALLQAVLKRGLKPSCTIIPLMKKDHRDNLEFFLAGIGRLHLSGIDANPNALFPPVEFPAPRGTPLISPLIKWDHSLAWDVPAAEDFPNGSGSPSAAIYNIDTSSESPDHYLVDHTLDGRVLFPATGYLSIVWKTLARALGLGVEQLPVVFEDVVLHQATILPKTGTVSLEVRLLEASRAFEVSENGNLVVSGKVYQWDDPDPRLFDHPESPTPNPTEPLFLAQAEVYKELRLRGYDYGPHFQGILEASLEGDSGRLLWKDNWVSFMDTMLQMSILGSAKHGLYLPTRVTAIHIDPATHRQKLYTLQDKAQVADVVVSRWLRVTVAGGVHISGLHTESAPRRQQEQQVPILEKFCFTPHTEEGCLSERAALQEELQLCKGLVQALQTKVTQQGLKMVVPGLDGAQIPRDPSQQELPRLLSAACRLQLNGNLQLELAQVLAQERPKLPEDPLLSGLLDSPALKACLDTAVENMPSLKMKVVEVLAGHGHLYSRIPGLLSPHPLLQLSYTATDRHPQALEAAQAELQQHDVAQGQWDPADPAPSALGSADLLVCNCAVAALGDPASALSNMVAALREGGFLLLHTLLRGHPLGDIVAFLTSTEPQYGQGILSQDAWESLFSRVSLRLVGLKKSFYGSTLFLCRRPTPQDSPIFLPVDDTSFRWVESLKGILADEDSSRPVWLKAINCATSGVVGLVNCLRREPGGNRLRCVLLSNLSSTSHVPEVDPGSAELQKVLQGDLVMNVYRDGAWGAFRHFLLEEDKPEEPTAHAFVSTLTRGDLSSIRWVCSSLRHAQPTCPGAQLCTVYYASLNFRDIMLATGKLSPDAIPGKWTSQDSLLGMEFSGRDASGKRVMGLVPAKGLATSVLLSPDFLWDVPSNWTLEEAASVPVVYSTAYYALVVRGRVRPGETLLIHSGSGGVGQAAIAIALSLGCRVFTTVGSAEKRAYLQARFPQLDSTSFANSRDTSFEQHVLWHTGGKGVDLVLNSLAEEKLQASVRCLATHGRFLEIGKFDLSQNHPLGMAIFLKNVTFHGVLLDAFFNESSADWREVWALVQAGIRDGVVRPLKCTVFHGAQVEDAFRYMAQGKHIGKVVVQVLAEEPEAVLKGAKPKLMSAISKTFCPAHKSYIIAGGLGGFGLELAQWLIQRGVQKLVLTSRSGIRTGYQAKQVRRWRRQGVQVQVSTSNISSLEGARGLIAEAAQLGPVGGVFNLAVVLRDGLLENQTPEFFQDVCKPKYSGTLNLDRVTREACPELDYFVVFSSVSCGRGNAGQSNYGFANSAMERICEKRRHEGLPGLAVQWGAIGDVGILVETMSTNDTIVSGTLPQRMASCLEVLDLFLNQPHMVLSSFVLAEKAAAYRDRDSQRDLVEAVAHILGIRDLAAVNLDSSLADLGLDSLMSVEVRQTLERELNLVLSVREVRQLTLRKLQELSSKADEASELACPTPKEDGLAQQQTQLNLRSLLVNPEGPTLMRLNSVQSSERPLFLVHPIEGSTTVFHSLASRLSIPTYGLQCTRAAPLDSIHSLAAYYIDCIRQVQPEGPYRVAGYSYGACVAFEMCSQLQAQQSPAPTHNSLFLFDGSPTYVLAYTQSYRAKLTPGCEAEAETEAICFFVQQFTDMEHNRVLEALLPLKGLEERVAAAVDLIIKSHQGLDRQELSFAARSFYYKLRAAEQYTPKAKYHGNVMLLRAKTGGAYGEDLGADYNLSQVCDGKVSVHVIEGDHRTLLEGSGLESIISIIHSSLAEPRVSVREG

Row | SMILES | IC50 [nM]
1 | CCNC(=O)[C@H]1CC[C@@H](n2cnnc2-c2ccc(-c3nc4ccccc4s3)cc2)C1 [Compound A33, (1S,3R)-3-[3-(4-benzothiazol-2-yl-phenyl)-[1,2,4]triazol-4-yl]-cyclopentanecarboxylic acid ethylamide] | < 300
2 | CCNC(=O)[C@H]1CC[C@@H](n2cnnc2-c2ccc(-c3cccc4[nH]ncc34)cc2)C1 [Compound A35, (1S,3R)-3-{3-[4-(1H-indazol-4-yl)-phenyl]-[1,2,4]triazol-4-yl}-cyclopentanecarboxylic acid ethylamide] | < 300
3 | CCC(=O)N[C@H]1CC[C@@H](n2cnnc2-c2ccc(-c3nc4ccccc4o3)cc2)C1 [Compound A37, N-{(1S,3R)-3-[3-(4-benzoxazol-2-yl-phenyl)-[1,2,4]triazol-4-yl]-cyclopentyl}-propionamide] | < 300
4 | CCC(=O)N[C@H]1CC[C@@H](n2cnnc2-c2ccc(-c3ccc(Cl)cc3)cc2)C1 [Compound A39, N-{(1S,3R)-3-[3-(4′-chloro-biphenyl-4-yl)-[1,2,4]triazol-4-yl]-cyclopentyl}-propionamide] | < 300
5 | CCC(=O)N[C@H]1CC[C@@H](n2cnnc2-c2ccc(-c3ccc(C#N)cc3)cc2)C1 [Compound A40, N-{(1S,3R)-3-[3-(4′-cyano-biphenyl-4-yl)-[1,2,4]triazol-4-yl]-cyclopentyl}-propionamide] | < 300
6 | CCC(=O)N[C@H]1CC[C@@H](n2cnnc2-c2ccc(-c3cccc4[nH]ncc34)cc2)C1 [Compound A42, N-((1S,3R)-3-{3-[4-(1H-indazol-4-yl)-phenyl]-[1,2,4]triazol-4-yl}-cyclopentyl)-propionamide] | < 300
7 | CCC(=O)N[C@H]1CC[C@@H](n2cnnc2-c2ccc(-c3ccc4ncsc4c3)cc2)C1 [Compound A43, N-{(1S,3R)-3-[3-(4-benzothiazol-6-yl-phenyl)-[1,2,4]triazol-4-yl]-cyclopentyl}-propionamide] | < 300
8 | CCC(=O)N[C@H]1CC[C@@H](n2cnnc2-c2ccc(-c3ccc4cc[nH]c4c3)cc2)C1 [Compound A44, N-((1S,3R)-3-{3-[4-(1H-indol-6-yl)-phenyl]-[1,2,4]triazol-4-yl}-cyclopentyl)-propionamide] | < 300
9 | CCC(=O)N[C@H]1CC[C@@H](n2nncc2-c2ccc(-c3ccc(C#N)cc3)cc2)C1 [Compound A58, N-{(1S,3R)-3-[5-(4′-Cyano-biphenyl-4-yl)-[1,2,3]triazol-1-yl]-cyclopentyl}-propionamide] | < 300
10 | CCC(=O)N[C@H]1CC[C@@H](n2nncc2-c2ccc(-c3ccc4cc[nH]c4c3)cc2)C1 [Compound A59, N-((1S,3R)-3-{5-[4-(1H-Indol-6-yl)-phenyl]-[1,2,3]triazol-1-yl}-cyclopentyl)-propionamide] | < 300
11 | CCC(=O)N[C@H]1CC[C@@H](n2nncc2-c2ccc(-c3ccc4ncsc4c3)cc2)C1 [Compound A60, N-{(1S,3R)-3-[5-(4-Benzothiazol-6-yl-phenyl)-[1,2,3]triazol-1-yl]-cyclopentyl}-propionamide] | < 300
12 | CCC(=O)N[C@H]1CC[C@@H](n2nncc2-c2ccc(-c3ccc4c(cnn4C)c3)cc2)C1 [Compound A61, N-((1S,3R)-3-{5-[4-(1-Methyl-1H-indazol-5-yl)-phenyl]-[1,2,3]triazol-1-yl}-cyclopentyl)-propionamide] | < 300
13 | CCC(=O)N[C@H]1CC[C@@H](n2nncc2-c2ccc(-c3ccc(C#N)cc3F)cc2)C1 [Compound A62, N-{(1S,3R)-3-[5-(4′-Cyano-2′-fluoro-biphenyl-4-yl)-[1,2,3]triazol-1-yl]-cyclopentyl}-propionamide] | < 300
14 | CCC(=O)N[C@H]1CC[C@@H](n2nncc2-c2ccc(-c3ccc4cnn(C)c4c3)cc2)C1 [Compound A63, N-((1S,3R)-3-{5-[4-(1-Methyl-1H-indazol-6-yl)-phenyl]-[1,2,3]triazol-1-yl}-cyclopentyl)-propionamide] | < 300
15 | CCC(=O)N[C@H]1CC[C@@H](n2nncc2-c2ccc(-c3ccc(-c4cnn(C)c4)cc3)cc2)C1 [Compound A64, N-((1S,3R)-3-{5-[4′-(1-Methyl-1H-pyrazol-4-yl)-biphenyl-4-yl]-[1,2,3]triazol-1-yl}-cyclopentyl)-propionamide] | < 300
16 | CCNC(=O)[C@H]1CC[C@@H](n2cnnc2-c2ccc(-c3ccc4ncsc4c3)cc2)C1 [Compound A65, (1S,3R)-3-[3-(4-Benzothiazol-6-yl-phenyl)-[1,2,4]triazol-4-yl]-cyclopentanecarboxylic acid ethylamide] | < 300
17 | O=C(N[C@H]1CC[C@@H](n2nncc2-c2ccc(-c3nc4ccccc4o3)cc2)C1)C1CC1 [Compound A66, Cyclopropanecarboxylic acid {(1S,3R)-3-[5-(4-benzooxazol-2-yl-phenyl)-[1,2,3]triazol-1-yl]-cyclopentyl}-amide] | < 300
18 | O=C(CC1CCCC1)N[C@H]1CC[C@@H](n2nncc2-c2ccc(-c3nc4ccccc4o3)cc2)C1 [Compound A67, N-{(1S,3R)-3-[5-(4-Benzoxazol-2-yl-phenyl)-[1,2,3]triazol-1-yl]-cyclopentyl}-2-cyclopentyl-acetamide] | 300 to 3000
19 | O=C(N[C@H]1CC[C@@H](n2nncc2-c2ccc(-c3nc4ccccc4o3)cc2)C1)[C@H]1CCCO1 [Compound A68, (R)-Tetrahydro-furan-2-carboxylic acid {(1S,3R)-3-[5-(4-benzooxazol-2-yl-phenyl)-[1,2,3]triazol-1-yl]-cyclopentyl}-amide] | 300 to 3000
20 | O=C(N[C@H]1CC[C@@H](n2nncc2-c2ccc(-c3nc4ccccc4o3)cc2)C1)[C@@H]1CCCO1 [Compound A69, (S)-Tetrahydro-furan-2-carboxylic acid {(1S,3R)-3-[5-(4-benzooxazol-2-yl-phenyl)-[1,2,3]triazol-1-yl]-cyclopentyl}-amide] | < 300
21 | CCC(=O)N[C@H]1CC[C@@H](n2nncc2-c2ccc(-c3cnc4ccccc4c3)cc2)C1 [Compound A70, N-{(1S,3R)-3-[5-(4-Quinolin-3-yl-phenyl)-[1,2,3]triazol-1-yl]-cyclopentyl}-propionamide] | < 300
22 | CCC(=O)N[C@H]1CC[C@@H](n2nncc2-c2ccc(-c3ccc4c(ccn4C)c3)cc2)C1 [Compound A71, N-((1S,3R)-3-{5-[4-(1-Methyl-1H-indol-5-yl)-phenyl]-[1,2,3]triazol-1-yl}-cyclopentyl)-propionamide] | < 300
23 | CCC(=O)N[C@H]1CC[C@@H](n2nncc2-c2ccc(-c3ccc4cn[nH]c4c3)cc2)C1 [Compound A72, N-((1S,3R)-3-{5-[4-(1H-Indazol-6-yl)-phenyl]-[1,2,3]triazol-1-yl}-cyclopentyl)-propionamide] | < 300
24 | CCC(=O)N[C@H]1CC[C@@H](n2nncc2-c2ccc(-c3ccc4[nH]cnc4c3)cc2)C1 [Compound A73, N-((1S,3R)-3-{5-[4-(1H-Benzimidazol-5-yl)-phenyl]-[1,2,3]triazol-1-yl}-cyclopentyl)-propionamide] | < 300
25 | CCC(=O)N[C@H]1CC[C@@H](n2nncc2-c2ccc(-c3ccc4[nH]ncc4c3)cc2)C1 [Compound A74, N-((1S,3R)-3-{5-[4-(1H-Indazol-5-yl)-phenyl]-[1,2,3]triazol-1-yl}-cyclopentyl)-propionamide] | < 300
26 | CCC(=O)N[C@H]1CC[C@@H](n2nncc2-c2ccc(-c3ccc(Cl)c(F)c3)cc2)C1 [Compound A75, N-{(1S,3R)-3-[5-(4′-Chloro-3′-fluoro-biphenyl-4-yl)-[1,2,3]triazol-1-yl]-cyclopentyl}-propionamide] | < 300
27 | CCC(=O)N[C@H]1CC[C@@H](n2nncc2-c2ccc(-c3ccc(-n4cccn4)cc3)cc2)C1 [Compound A76, N-{(1S,3R)-3-[5-(4′-Pyrazol-1-yl-biphenyl-4-yl)-[1,2,3]triazol-1-yl]-cyclopentyl}-propionamide] | < 300
28 | CCC(=O)N[C@H]1CC[C@@H](n2nncc2-c2ccc(-c3ccc4c(c3)N(C)C(=O)C4)cc2)C1 [Compound A77, N-((1S,3R)-3-{5-[4-(1-Methyl-2-oxo-2,3-dihydro-1H-indol-6-yl)-phenyl]-[1,2,3]triazol-1-yl}-cyclopentyl)-propionamide] | < 300
29 | CCC(=O)N[C@H]1CC[C@@H](n2nncc2-c2ccc(-c3cc4cn[nH]c4cc3C)cc2)C1 [Compound A78, N-((1S,3R)-3-{5-[4-(6-Methyl-1H-indazol-5-yl)-phenyl]-[1,2,3]triazol-1-yl}-cyclopentyl)-propionamide] | < 300
30 | CCC(=O)N[C@H]1CC[C@@H](n2nncc2-c2ccc(-c3ccc4c(c3)CC(=O)N4)cc2)C1 [Compound A79, N-((1S,3R)-3-{5-[4-(2-Oxo-2,3-dihydro-1H-indol-5-yl)-phenyl]-[1,2,3]triazol-1-yl}-cyclopentyl)-propionamide] | < 300
